Laboratory results taken from publication PMC11459959, “Discovery of new acetamide derivatives of 5-indole-1,3,4-oxadiazol-2-thiol as inhibitors of HIV-1 Tat-mediated viral transcription” (Antimicrobial Agents and Chemotherapy, 2024).
Like-named read-outs stand apart in the source and are kept apart here.

What was measured:
[1] = Cell viability of TZM-bl cells (PrestoBlue); format: cell-based; settings: human
Description: (§6) The TZM-bl cells (also referred to as JC53BL-13) expressing human CD4, CXCR4, and CCR5 carrying the F-Luc and lacZ genes downstream of the HIV-1 LTR promoter ([60]) were used to determine the inhibitory effect of the compounds on HIV-1 infection, as previously described ([11], [12], [61]). In brief, 1 × 10^4 cells were cultured in 96-well plates for 24 h and subsequently treated with compounds at the indicated concentrations. Without replacement of the culture medium, the cells were subsequently infected with the HIV-1NL4-3 wild-type or ARV-resistant HIV-1 strains at an MOI of 1 to determine the exact inhibitory effect of compounds on a single-round infection. After 48 h, the inhibitory effect of the compounds was determined using a Bright Glo luciferase assay kit (Promega) or β-Galactosidase Enzyme Assay kit (Promega). The infectivity data were presented as a percentage relative to the dimethyl sulfoxide (DMSO) control (vehicle). Cell viability was determined using the resazurin-based PrestoBlue Cell Viability Reagent (Thermo Fisher Scientific, Waltham, MA, USA) following the manufacturer’s instructions.

[2] = system: general cellular transcription/translation (R-Luc); assay: Dual-reporter assay, R-Luc in bl-DTR cells; format: cell-based; settings: doxycycline, 24 h
Description: (§1) Fig 1 (A) (Top panel) Schematic representation of the primary compound screening using a dual-reporter system. […] (B). […] (Top graphs) bl-DTR cells (1 × 10^4) were treated with twofold serial dilutions of each compound before doxycycline (Dox) addition (final concentration, 50 ng/mL). After 24 h of treatment, the activities of firefly luciferase (F-Luc, red line) and Renilla luciferase (R-Luc, blue line) were determined using the Dual-Glo Luciferase assay system. (Bottom graphs) TZM-bl cells were treated with each indicated compound and subsequently infected with the HIV-1NL4-3 strain at a multiplicity of infection (MOI) of 1. At 48 h after infection, the viral infectivity (purple line) and cell viability (green line) were determined using the Bright-Glo luciferase assay kit and the PrestoBlue Cell Viability Reagent, respectively. […] (C). […] The targeted moieties for the SAR study are marked with dotted-circle lines.
(§2) The Tzm-bl-derived dual Tat reporter; TZM-bl/Tat/Rluc (bl-DTR) cells were established from TZM-bl cells using two Dox-inducible lentiviral expression cassettes cloned with Flag-tagged Tat86 and the R-Luc gene, as described in our previous study ([11]). TZM-bl, A3.01, J1.1, and J-Lat 6.3 cells as well as the HIV-1 molecular clone pNL4-3, pNL(AD8), ARV-resistant HIV-1 strains, and HIV-1NL43-IRES-eGFP (pBR43IeG-nef^+, gifted by Dr. Frank Kirchhoff) ([52]) were provided by the National Institute of Health HIV Reagent Program (NIH, Bethesda, MD, USA). HeLa (CCL-2) and 293T (CRL-3216) cell lines were purchased from the American Type Culture Collection (ATCC, Manassas, VA, USA). The bl-DTR, TZM-bl, HeLa, and 293T cells were cultured in Dulbecco’s modified Eagle’s medium supplemented with 1% penicillin–streptomycin and 10% (vol/vol) heat-inactivated fetal bovine serum (all from Gibco-BRL, Gaithersburg, MD, USA), and 1 µg/mL of puromycin and 200 µg/mL of zeocin were additionally supplemented for the bl-DTR cells. PBMCs were purchased from AllCells (Alameda, CA, USA) and cultured as previously described ([12]). The information on ARV-resistant HIV-1 strains was described in previous reports as follows: NNRTI-resistant 12241 and 12243 ([53]); NRTI-resistant 7396, 7406, and 7407 ([54]); INSTI-resistant 11847 and 11849 ([55], [56]); and PI-resistant 11800 and 11803 ([57]). Each molecular HIV-1 clone was transfected to 293T cells, as previously described ([58]), to obtain infectious HIV-1 particles. Virus-containing cell culture supernatants were collected 3 days after transfection, and filtered through a 0.45-µm membrane filter (Millipore Sigma, Burlington, MA, USA) to remove cell debris. The viral titration was performed as described previously ([59]) with some minor modifications. In brief, 1 × 10^4 TZM-bl cells seeded in 96-well plates were infected with 200 µL of virus-containing medium diluted serially twofold. The incubation was for 2 days and the experiment was performed in triplicate; the infection time minimized the virus spread ([59]). The titration of the infectious viral particles was performed with a ß-Gal staining assay using the ßeta-Galactosidase Staining Kit (Mirus Bio, Madison, WI, USA) following the manufacturer’s protocols. In brief, the infected cells were washed with phosphate-buffered saline (PBS) and fixed using a Cell Fixative Working solution. The cells were washed with PBS and stained using the Cell Staining Working Solution containing X-gal. The infected blue-colored cells were counted under a microscope (100× magnification). The infectious virus titer was determined as a mean value of blue-colored cells count × dilution factor and used for determining the multiplicity of infection (MOI) in each infection experiment.

[3] = system: HIV-1NL4-3; assay: HIV-1 infectivity in TZM-bl cells (F-Luc); format: cell-based; settings: for EC50: Human immunodeficiency virus 1, TZM-bl, 48 h
Description: as §6

[4] = system: Tat-mediated LTR transcription; assay: Dual-reporter assay, F-Luc (Tat-mediated LTR transcription) in bl-DTR cells; format: cell-based, HIV-1; settings: Human immunodeficiency virus 1, 24 h, read-out: IC50 of F-Luc (Tat)
Description: as §1, §2

[5] = system: HIV-1NL4-3 IRES-eGFP-nef+; assay: eGFP-encoding HIV-1 infection of TZM-bl cells; format: cell-based; settings: 9, 10, 13 1.5 μM, 20, 21, 22 4 μM, seliciclib 10 µM, triptolide 5 nM, DTG 2 nM, EFV 2 nM, 2 days
Description: Fig 4 (A) Comparison of the chemical structures between prominent derivatives (9, 10, and 13) and non-functional derivatives (20, 21 and 22). (B) bl-DTR cells were treated with serial dilutions of each compound upon Dox for 24 h. The activities of F-Luc and R-Luc were determined using the Dual-Glo -Luciferase assay system. (C) TZM-bl cells were infected with the HIV-1NL4-3 strain at an MOI of 1 upon treatment of compounds. At 48 h after infection, the viral infectivity and cell viability were determined as described above (Fig. 1). (D) TZM-bl cells were infected with HIV-1NL4-3 IRES-eGFP virus along with the compound treatment. Two days later, GFP-expressing cells were observed by fluorescence microscopy (100× magnification). […] At 48 h after infection, the β-gal activity indicating viral infectivity was determined using the β-gal Enzyme Assay kit. F-Luc activity and cell viability were determined as described above (Fig. 4C). (C and E) The dose-response curves show the relative activity compared with that of the DMSO vehicle (mean ± SD; n = 3).

[6] = system: HIV-1NL4-3; assay: Time-of-addition assay in TZM-bl cells; format: cell-based; settings: HIV-1NL4-3 MOI 1, 9 and 13 1.5 μM, T-20 1 µM, triptolide 5 nM, ARVs 1 µM, F-Luc at 54 h
Description: Fig 5 (A) Time-of-addition assay. […] Subsequently, the cells were treated with the compounds at the indicated time points (0, 1, 2, 4, 6, 8, 10, 12, 24, 30, 36, 42, and 48 h) after HIV-1 infection. The final concentrations of compounds are described in Materials and Methods. Viral activity according to the timing of drug addition was measured as F-Luc activity at 54 h after infection. The relative activities are represented as the mean ± SD (n = 3) compared with the activity observed 54 h post-infection. The relative time frames associated with each HIV-1 infection step are defined based on the time frame of susceptibility to the drug that blocks that particular infection step. […] At 16 h after infection, the viral reverse transcription (RT) product (viral cDNA) level was determined by quantitative real-time PCR (RT-qPCR) using gag and 18S rRNA primer sets and represented as the mean ± SD (n = 3) normalized against the amount of the 18S rRNA compared with the DMSO control. **P < 0.01 compared with the vehicle (DMSO). (C) An in vitro integrase (IN) assay was performed with 10 µM of the indicated compounds following the manufacturer’s protocol. **P < 0.01 compared with vehicle (DMSO). (D) A3.01 cells were infected with HIV-1 upon treatment with the indicated compounds (5 µM) and ARVs (EFV and DTG) as the experimental controls. At 40 h after infection, cellular chromosomal DNA was purified, and the integrated proviral DNA was detected through nested Alu-PCR amplification.
A time-of-addition assay was performed as previously described ([25]) with minor modifications. […] Reference drug and test compounds were subsequently added at the indicated time (0, 1, 2, 4, 6, 8, 10, 12, 24, 30, 36, 42, and 48 h after infection). Final concentrations were as follows: compounds 9 and 13 (1.5 μM), T-20 (1 µM), Triptolide (5 nM), and ARVs (AZT, EFV, DTG, RAL) (1 µM). The viral activity according to the timing of drug addition was measured using a Bright Glo luciferase assay kit (Promega). Virus activity curves present a % activity relative to the activity observed at 54 h after infection, and the data are presented as the mean ± standard deviation (SD) (n = 3). The relative time frame associated with each HIV-1 infection step was defined based on the sensitivity to each drug that blocks a particular infection step.

[7] = system: NRTI-resistant HIV-1 strain 7396; assay: microbe, parasite or virus in culture; format: cell-based; settings: Human immunodeficiency virus 1, TZM-bl
Description: (§3) Fig 7 (A–C) TZM-bl cells (1 × 10^4 cells/well) cultured in a 96-well plate were treated with fivefold serial dilutions of the indicated compound or ARV for 1 h before infection with the HIV-1NL4-3 or ARV-resistant HIV-1 strains at an MOI of 1, respectively. At 48 h after infection, the EC50 values were determined using an F-Luc activity. The symbols represent the fold-change values of EC50 against each mutant virus relative to the wild-type (WT) virus. (D) PBMCs (5 × 10^4 cells/well) were infected with the HIV-1NL4-3 and PIs-resistant HIV-1 strain at an MOI of 0.1, respectively. Subsequently, the PBMCs were treated with 10-fold serial dilutions of the indicated compounds or PI. At 3 days after infection, the EC50 values on the viral replication were determined using a p24 […] assay kit. (E) The inhibitory kinetics for the WT and ARV-resistant viruses. TZM-bl cells infected with WT or ARV-resistant viruses were cultured upon fivefold serial dilutions of each compound for 2 days and the infectivity was determined using an F-Luc activity.
as §2

[8] = system: NRTI-resistant HIV-1 strain 7407; assay: microbe, parasite or virus in culture; format: cell-based; settings: Human immunodeficiency virus 1, TZM-bl
Description: as §3, §2

[9] = system: NRTI-resistant HIV-1 strain 7406; assay: microbe, parasite or virus in culture; format: cell-based; settings: Human immunodeficiency virus 1, TZM-bl
Description: as §3, §2

[10] = Cell viability of PBMCs; format: cell-based; settings: human; PBMCs, absence of HIV-1 infection; mean ± SD; read-out: CC50
Description: (§4) The p24 level from the cell supernatant was subsequently determined using a p24 […] kit (PerkinElmer). In parallel, the cell viability was determined without viral infection because of the viral cytopathic effect. […] In parallel, cell viability was determined. The data (A and B) are presented as the mean ± SD (n = 3). (C) PBMCs (4 × 10^5) infected with HIV-AD8 at an MOI of 0.1 were treated with 1.5 µM of the compounds or ARVs for 3 days. The levels of p24 and cell viability were subsequently determined. (D) J1.1 cells were cultured with the compounds ([…]) under 50 ng/mL phorbol myristate acetate (PMA) treatment for 2 days. The level of p24 was subsequently determined. (E) J-Lat 6.3 cells were treated with the compounds (1.5 µM) under 1 µg/mL of PMA for 2 days. The GFP-positive cell population was analyzed using flow cytometry. The data are represented as a value relative to the DMSO-treated vehicle (D) and a percent of the GFP^+ cell population (E) as mean ± SD (n = 3).
(§5) The inhibitory effects of the compounds on viral replication were determined with some minor modifications, as previously described ([12], [62]). […] PBMCs (4 × 10^5) pre-activated with PHA-M for 3 days were washed with fresh media to remove excess PHA-M and subsequently infected with HIV-1NL4-3 or HIV-1AD8 or PIs-resistant HIV-1 strains as A3.01 infection. After infection, the infectious media were replaced with fresh media supplemented with international 10 units (IU)/mL of IL-2 and the indicated compounds. At 72 h after infection, the inhibitory effect of the compounds on viral replication was determined by measuring the p24 amount, an HIV capsid protein, using an HIV-1 p24 […] kit (PerkinElmer, Waltham, MA, USA). Cell viability was determined as described above. The inhibitory effects on provirus reversing in J1.1 and J-Lat 6.3 cells were determined as previously described ([12], [41], [63]) with some minor modifications. Briefly, 5 × 10^4 persistently HIV-1-infected J1.1 or J-Lat 6.3 cells were cultured in either the presence or absence of the compounds at a final concentration of 1.5 µM and treated with PMA (50 ng/mL for J1.1 cells, 1 µg/mL for J-Lat 6.3 cells). Two days after treatment, the levels of viral production were determined using p24 […] for J1.1 cells and flow cytometry analysis for GFP-expressing J-Lat 6.3 cells.

[11] = Cell viability of A3.01 cells; format: cell-based; settings: human; A3.01 cells, absence of HIV-1 infection; mean ± SD; read-out: CC50
Description: as §4, §5

## Cc1[nH]c2ccc(-c3nnc(SCC(=O)N4CCCC(C)C4)o3)cc2c1C (stereo not shown) [Compound 10, 2-((5-(2,3-Dimethyl-1H-indol-5-yl)-1,3,4-oxadiazol-2-yl)thio)-1-(3-methylpiperidin-1-yl)ethan-1-one]
[1]
  CC50 at 48 h: 82.5 ± 6.41 µM
[2]
  Relative R-Luc activity at IC50 of F-Luc: >100
[3]; TZM-bl cells infected with HIV-1NL4-3 at MOI 1, 48 h, F-Luc, mean ± SD, read-out: EC50
  EC50: 560 ± 50 nM
[3]; TZM-bl cells
  SI (CC50/EC50): 147.27
[4]
  IC50: 1100 ± 70 nM
[5]
  inhibition of viral-expressed eGFP signal: remarkably inhibited

## enfuvirtide [Compound T-20]
[6]
  time of administration after infection at which effectiveness began to decrease / was lost: 1 h

## Nc1ccn([C@@H]2CS[C@H](CO)O2)c(=O)n1 [Compound 3TC, lamivudine]
[3]; Table S1, WT virus, TZM-bl, fivefold serial dilutions, MOI 1, 48 h
  EC50: 1230 ± 220 nM
[7]
  EC50: 3.64 ± 1.37 µM
[8]
  EC50: > 100 µM
[9]
  EC50: > 100 µM

## Nc1nc(NC2CC2)c2ncn([C@H]3C=C[C@@H](CO)C3)c2n1 [ABC, abacavir]
[3]; Table S1, WT virus, TZM-bl, fivefold serial dilutions, MOI 1, 48 h, read-out: EC50
  EC50: 12200 ± 7480 nM
[7]
  EC50: 22.4 ± 0.39 µM
[8]
  EC50: > 100 µM
[9]
  EC50: > 100 µM

## CC[C@H](CO)Nc1nc(NCc2ccccc2)c2ncn(C(C)C)c2n1 [seliciclib, reference compound]
[10]
  CC50 at 3 days: 21.4 ± 2.1 µM
[1]; TZM-bl cells, absence of HIV-1 infection, mean ± SD, read-out: CC50
  CC50 at 48 h: 39.2 ± 4.09 µM
[11]
  CC50 at 3 days: 27 ± 1.12 µM
[5]
  inhibition of viral-expressed eGFP signal: remarkably inhibited
